Where two headings read alike, the source gives them in different places.
Columns and labels:
Type in all cases: biochemical
[1] = target: Streptomyces avermitilis (4-hydroxyphenyl)pyruvate dioxygenase (Sav HppD) variant Az2 V189A N191A S230L P243G N245F Q255P L367I, SEQ ID NO: 3 (Streptomyces avermitilis, UniProt Q53586, L367I/N191A/N245F/P243G/Q255P/S230L/V189A); assay: Kinetic analysis of 1NF azidation by purified Sav HppD Az2 (anaerobic, GCMS product quantification); conditions: comparator not given
Chain of Streptomyces avermitilis (4-hydroxyphenyl)pyruvate dioxygenase (Sav HppD) variant Az2 V189A N191A S230L P243G N245F Q255P L367I, SEQ ID NO: 3 (Q53586 whole entry V189A/N191A/S230L/P243G/N245F/Q255P/L367I): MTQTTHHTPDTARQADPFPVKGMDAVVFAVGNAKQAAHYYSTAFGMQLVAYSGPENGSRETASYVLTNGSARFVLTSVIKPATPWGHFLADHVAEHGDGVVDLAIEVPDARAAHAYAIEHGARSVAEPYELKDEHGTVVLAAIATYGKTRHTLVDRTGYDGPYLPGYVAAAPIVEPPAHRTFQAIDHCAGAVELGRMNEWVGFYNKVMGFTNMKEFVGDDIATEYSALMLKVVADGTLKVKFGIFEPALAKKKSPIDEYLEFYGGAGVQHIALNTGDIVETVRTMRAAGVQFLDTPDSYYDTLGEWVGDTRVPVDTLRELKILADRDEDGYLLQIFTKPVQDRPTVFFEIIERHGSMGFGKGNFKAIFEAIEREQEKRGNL
Protocol: (§1) FIG. 10 is a series of plots which summarize kinetics for non-heme iron enzyme mediated azidation reactions. The leftmost plot provides kinetics data for wild-type Sav HppD. The middle plot provides kinetics data for Az1 Sav HppD. The rightmost plot provides kinetics data for Az2 Sav HppD.
(§2) Protein expression was conducted following the protocols detailed in section (B). E. coli cells expressing non-heme iron enzyme variants were pelleted (4,000×g, 5 min, 4° C.) and stored at −20° C. for at least 24 hours. The cell pallet was then resuspended in 50 mM KPi buffer containing 100 mM NaCl and 20 mM imidazole (pH 7.5 at 25° C.) (10 mL buffer per gram of cell pellet). […] Fractions containing purified proteins were detected by SDS-PAGE, pooled and concentrated using Millipore® centrifugal filter. […] Final concentration was measured by absorbance at 280 nm using a NanoDrop spectrophotometer. The theoretical extinction coefficients (M^−1 cm^−1) used for Say HppD and its variants were calculated using ExPASy Bioinformatics Resources Portal. […]
(§3) Kinetic analyses for wild-type Sav HppD, Az1, and Az2 mediated 1NF azidation were performed in an anaerobic chamber. […] After centrifugation at 12,000 rpm for 10 mins, an aliquot (200 μL) of the organic layer was taken for GCMS analysis for product quantification.

[2] = target: Streptomyces avermitilis (4-hydroxyphenyl)pyruvate dioxygenase (Sav HppD) variant Az1 V189A F216A P243A N245Q Q255A L367I, SEQ ID NO: 2 (Streptomyces avermitilis, UniProt Q53586, F216A/L367I/N245Q/P243A/Q255A/V189A); assay: Kinetic analysis of 1NF azidation by purified Sav HppD Az1 (anaerobic, GCMS product quantification); conditions: Az1 vs wt
Chain of Streptomyces avermitilis (4-hydroxyphenyl)pyruvate dioxygenase (Sav HppD) variant Az1 V189A F216A P243A N245Q Q255A L367I, SEQ ID NO: 2 (Q53586 whole entry V189A/F216A/P243A/N245Q/Q255A/L367I): as the sequence (Q53586 whole entry V189A/N191A/S230L/P243G/N245F/Q255P/L367I) above, with A191N, F216A, L230S, G243A, F245Q, P255A counted along it
Protocol: as §1, §2, §3

[3] = Replacement of azide with other halide or pseudohalide anions, Sav HppD Az1 cell lysate
Protocol: We also tried to extend the scope of N-radical precursors and replace azide with other halide or pseudohalide anions, the results of which analyses are summarized in TABLE 5. For these analyses. ferrous ammonium sulfate (10 μL, 100 mM in water), sodium halide or pseudohalide solution (10 μL, 1 M in water), and N-fluoroamide substrate 1NF (10 μL, 400 mM in DME) were added to a 2 mL vial containing Sav HppD Az1 cell lysate (400 μL, obtained from OD600=20 cell suspension) in an anerobic chamber. The vial was capped and shaken at 680 rpm at room temperature for 24 hours. At the end of the reaction, the vial was opened and the reaction was quenched with 0.8 mL of a hexanes/ethylacetate solution (4:6 v/v) of internal standard 1,2,3-trimethoxybenzene (0.5 mM final concentration). The reaction mixture was transferred to a 2 mL microcentrifuge tube, vortexed (10 seconds, 3 times), then centrifuged (14,000×g, 5 min) to completely separate the organic and aqueous layers. […]

[4] = Sav HppD Az1 cell lysate (OD600=20), 1NF, GCMS peak area over internal standard, 24 hours

| SMILES | IA/internal [3, 4] | IF/internal [3, 4] | other results |
| --- | --- | --- | --- |
| CCc1ccccc1C(=O)N(F)C(C)(C)C [1NF, N-(tert-butyl)-2-ethyl-N-fluorobenzamide] | – | – | decrease in KM [1]: 6.6 fold; decrease in kcat [1]: 9 fold; increase in KM over the wild-type enzyme [2]: 1.7 fold; increase in kcat over the wild-type enzyme [2]: 4.1 fold |
| [Cl-].[Na+] [NaCl] | – | – | IA/internal [3]: 2.3; IF/internal [3]: 0.04 |
| [F-].[Na+] [NaF] | 2.5 | 0.04 | – |
| [Br-].[Na+] [NaBr] | 2.4 | 0.04 | – |
| O=N[O-].[Na+] [NaNO2] | – | – | IA/internal [3]: 1.9; IF/internal [3]: 0.03 |
| N#C[S-].[Na+] [NaSCN] | 2.7 | 0.05 | – |
| N#C[O-].[Na+] [NaOCN] | 2.1 | 0.03 | – |
